Results published in patent US6326395A, “Antifungal activity of dicationic molecules” (priority 1999, dated 2001).
Converted amounts (≈) assume the structure as drawn. Counter-ions that a name gives are not always drawn. Like-named read-outs stand apart in the source and are kept apart here.

Experiments:
C. neoformans 135.95 = assay: antifungal susceptibility testing (MIC, MFC), extended spectrum; type: cell-based, C. neoformans var. neoformans; conditions: Cryptococcus neoformans, read-out: fluconazole-resistant
Experimental: (§1) Antifungal susceptibility testing for compounds set forth in Examples 21-28 is discussed hereinbelow. […]
(§2) In vitro susceptibility testing in the form of Minimum Inhibitory Concentration (MIC) experiments were performed using the broth macrodilution method according to the recommendations of the National Committee for Clinical Laboratory Standards (see 1995 manual). […] Briefly, this procedure specifies an inoculum grown at 35° C. and adjusted to a concentration of 0.5-2.5×10^3 CFU/ml with an incubation of the test performed at 35° C. and reading at 48 hours for all yeasts except for C. neoformans which is interpreted at 72 hr.
(§3) Minimum Fungicidal Concentration (MFC) experiments were adapted from a method by McGinnis (McGinnis, M. R., (1980) "Susceptibility testing and bioassay procedure", p.431, Academic Press, Inc., New York). […] The lowest drug concentration that yielded 3 or fewer yeasts colonies was recorded as the MFC. […]

C. neoformans 133.95 = assay: as above; type: cell-based, C. neoformans var. neoformans; conditions: Cryptococcus neoformans, read-out: fluconazole-resistant
Experimental: as §1, §2, §3

C. neoformans 114.96 = assay: as above; type: cell-based, C. neoformans var. neoformans; conditions: Cryptococcus neoformans, read-out: fluconazole-resistant
Text: (§4) Antifungal susceptibility testing for compounds set forth in Examples 1-20 is discussed hereinbelow. The fungi that were employed included two reference strains, C. neoformans var. neoformans H99 and C. albicans A39 and the following clinical isolates: (1) two strains of fluconazole-resistant C. neoformans var. neoformans (135.95 and 114.96); (2) two strains of C. neoformans var. gattii (119.95 and 114.95); (3) two strains of fluconazole-resistant C. albicans (102.96 and 103.96); and (4) one strain each of Torulopsis glabrata (142.91), Candida parapsilosis (111.96), Candida krusei (132.91), C. tropicalis (110.96), Candida lusitaniae (111.92), Fusarium solani (152.89), Aspergillus fumigatus (168.95), and Aspergillus flavus (112.96). Antifungal susceptibility testing was performed using an RPMI-1640 medium (Sigma Chemical Co., St. Louis, Mo.) with glutamine, without sodium bicarbonate, and buffered at pH 7.0 with 0.165 M morpholine-propanesulfonic acid (MOPS).
as §2
as §3, with “p. 431,” for “p.431,”, “three” for “3”
as §3

Candida albicans = assay: in vitro antifungal susceptibility testing (MIC, MFC; broth macrodilution), Tables 1-7; type: cell-based; conditions: for MIC: read-out: MIC80 (Minimum inhibitory concentration 80%); for MFC: three or fewer colonies, read-out: MFC (Minimum fungicidal concentration)
Text: as §4, with “The” for “Antifungal susceptibility testing for compounds set forth in Examples 1-20 is discussed hereinbelow. The”
(§5) In vitro susceptibility testing in the form of Minimum Inhibitory Concentration (MIC) experiments were performed using the broth macrodilution method according to the recommendations of the National Committee for Clinical Laboratory Standards (see 1995 manual). The only difference compared to the standardized procedure was the choice of drug dilutions ranging from 100 to 0.09 μg/ml. Briefly, this procedure specifies an inoculum grown at 35° C. and adjusted to a concentration of 0.5-2.5×10^3 CFU/ml with an incubation of the test performed at 35° C. and reading at 48 hours for all yeasts except for C. neoformans which is interpreted at 72 hr.
(§6) Minimum Fungicidal Concentration (MFC) experiments were adapted from a method by McGinnis (McGinnis, M. R., (1980) "Susceptibility testing and bioassay procedure", p. 431, Academic Press, Inc., New York). Briefly, 10 μl aliquots from tubes with growth inhibition were plated onto Sabouraud agar plates.
(§7) The fungi that were employed included two quality control reference strains, C. neoformans var. neoformansH99 and C. albicans A39 and the following clinical isolates: (1) four strains of C. neoformans var. neoformans (167.95; 135.95; 114.96; and 133.95) of which three were fluconazole-resistant>64 μg/ml (135.95; 114.96; and 133.95); (2) two strains of C. neoformans var. gattii (119.95 and 114.95); (3) two strains of fluconazole-resistant>64 μg/ml C. albicans (102.96 and 103.96); and (4) one strain each of C. glabrata (142.91), Candida parapsilosis (111.96), Candida krusei (132.91), C. tropicalis (110.96), Candida lusitaniae (111.92), Fusarium solani (152.89), Aspergillus fumigatus (168.95), Rhizopus arrhizus (117.89), Paecilomyces lilacinus (137.90), and Aspergillus flavus (112.96). Antifungal susceptibility testing was performed using an RPMI-1640 medium (Sigma Chemical Co., St. Louis, Mo.) with glutamine, without sodium bicarbonate, and buffered at pH 7.0 with 0.165 M morpholinepropanesulfonic acid (MOPS).
as §6, with “p.431,” for “p. 431,”

Cryptococcus neoformans = assay: as above; type: cell-based; conditions: for MIC: read-out: MIC80 (Minimum inhibitory concentration 80%); for MFC: Tables 2-7, three or fewer colonies, read-out: MFC (Minimum fungicidal concentration)
Text: as §4, with “The” for “Antifungal susceptibility testing for compounds set forth in Examples 1-20 is discussed hereinbelow. The”
as §5, §6, §7
as §6, with “p.431,” for “p. 431,”

C. albicans 103.96 = assay: antifungal susceptibility testing (MIC, MFC), extended spectrum; type: cell-based, Candida albicans; conditions: Candida albicans, 103.96, read-out: fluconazole-resistant
Text: as §4, §5
as §6, with “plates. The lowest drug concentration that yielded three or fewer yeasts colonies was recorded as the MFC.” for “plates.”
as §7, with “Antifungal susceptibility testing for compounds set forth in Examples 21-28 is discussed hereinbelow. The” for “The”
(§8) Minimum Fungicidal Concentration (MFC) experiments were adapted from a method by McGinnis (McGinnis, M. R., (1980) "Susceptibility testing and bioassay procedure", p.431, Academic Press, Inc., New York). Briefly, 10 μl aliquots from tubes with growth inhibition were plated onto Sabouraud agar plates. The lowest drug concentration that yielded 3 or fewer yeasts colonies was recorded as the MFC. Several drugs were also rescreened with a subculture of 100 μl aliquots from tubes with no growth and there was no change in MFC.

C. albicans 102.96 = assay: as above; type: cell-based, Candida albicans; conditions: Candida albicans, 102.96, read-out: fluconazole-resistant
Text: as §4, §5
as §8, with “p. 431,” for “p.431,”, “three” for “3”, “MFC.” for “MFC. Several drugs were also rescreened with a subculture of 100 μl aliquots from tubes with no growth and there was no change in MFC.”
as §7, with “Antifungal susceptibility testing for compounds set forth in Examples 21-28 is discussed hereinbelow. The” for “The”
as §8

Candida albicans A39 = assay: as above; type: cell-based; conditions: Candida albicans, A39, read-out: MICs
Text: as §4, §5
as §8, with “p. 431,” for “p.431,”, “three” for “3”, “MFC.” for “MFC. Several drugs were also rescreened with a subculture of 100 μl aliquots from tubes with no growth and there was no change in MFC.”
as §1, §3

[1] = system: Cryptococcus neoformans H99; assay: as above; type: cell-based, C. neoformans var. neoformans; conditions: Cryptococcus neoformans, H99, read-out: MICs
Text: as §4, §2
as §3, with “p. 431,” for “p.431,”, “three” for “3”
as §3

Row | Compound | MIC (Candida albicans; 35° C., reading at 48 hours) | MIC (Cryptococcus neoformans; 35° C., 72 hr) | MFC (Candida albicans) | MFC (Cryptococcus neoformans) | also measured
1 | OC(Cn1cncn1)(Cn1cncn1)c1ccc(F)cc1F [Fluconazole, reference compound] | – | – | – | – | MIC (C. neoformans 135.95): > 64 µg/mL; MIC (C. neoformans 133.95): > 64 µg/mL; MIC (C. neoformans 114.96): > 64 µg/mL; MIC (Candida albicans; 48 h): 0.25 µg/mL (≈ 0.816 µM); MIC80 (Minimum inhibitory concentration 80%) (Cryptococcus neoformans; 35° C., 72 hr): 2.0 µg/mL (≈ 6.53 µM); MIC (Cryptococcus neoformans; 72 h): 2 µg/mL (≈ 6.53 µM); MIC (C. albicans 103.96): > 64 µg/mL; MIC (C. albicans 102.96): > 64 µg/mL; MIC (Candida albicans A39): 0.25 µg/mL (≈ 0.816 µM)
2 | C[C@@H]1[C@H](O)[C@@H](C)/C=C/C=C/C=C/C=C/C=C/C=C/C=C/[C@H](O[C@@H]2O[C@H](C)[C@@H](O)[C@H](N)[C@@H]2O)C[C@@H]2O[C@](O)(C[C@@H](O)C[C@@H](O)[C@H](O)CC[C@@H](O)C[C@@H](O)CC(=O)O[C@H]1C)C[C@H](O)[C@H]2C(=O)O [Amphotericin, reference compound] | 1 µg/mL (≈ 1.08 µM) | 1 µg/mL (≈ 1.08 µM) | – | – | MIC [1]: 1 µg/mL (≈ 1.08 µM); MIC (Candida albicans A39): 1 µg/mL (≈ 1.08 µM)
3 | CC(C)NC(=N)c1cccc(-c2ccc(-c3cccc(C(=N)NC(C)C)c3)o2)c1 [Compound 40] | 100 µg/mL (≈ 257 µM) | 6.25 µg/mL (≈ 16.1 µM) | > 100 µg/mL | 6.25 µg/mL (≈ 16.1 µM) | –
4 | CN(C)CCCNC(=O)c1ccc(-c2ccc(-c3ccc(C(=O)NCCCN(C)C)cc3)o2)cc1 [Compound 35] | > 100 µg/mL | > 100 µg/mL | – | – | –
5 | Cc1cc(-c2nc3ccc(C(=N)N)cc3[nH]2)c(C)cc1-c1nc2ccc(C(=N)N)cc2[nH]1 [Compound 50] | 25 µg/mL (≈ 59.2 µM) | 25 µg/mL (≈ 59.2 µM) | 100 µg/mL (≈ 237 µM) | 25 µg/mL (≈ 59.2 µM) | –
6 | N=C(N)c1ccc(OCCCC(O)COc2ccc(C(=N)N)cc2)cc1 (centres unmarked) [Compound 21] | 6.25 µg/mL (≈ 17.5 µM) | 6.25 µg/mL (≈ 17.5 µM) | 12.5 µg/mL (≈ 35.1 µM) | 12.5 µg/mL (≈ 35.1 µM) | –
7 | CN(C)CCNC(=N)c1cccc(-c2ccc(-c3cccc(C(=N)NCCN(C)C)c3)o2)c1 [Compound 41] | > 100 µg/mL | 12.5 µg/mL (≈ 28 µM) | – | 50 µg/mL (≈ 112 µM) | –
8 | c1cc(-c2nc3ccc(C4=NCCCN4)cc3[nH]2)ccc1C1=NCCCN1 [Compound 63] | 50 µg/mL (≈ 139 µM) | 25 µg/mL (≈ 69.7 µM) | 100 µg/mL (≈ 279 µM) | 50 µg/mL (≈ 139 µM) | –
9 | CC(C)NC(=N)c1ccc2nc(-c3ccc(CCc4ccc(-c5nc6ccc(C(=N)NC(C)C)cc6[nH]5)cc4)cc3)[nH]c2c1 [Compound 53, 4,4'-Bis[2-(5-N-isopropylamidino)benzimidazoyl]-1,2-diphenylethane hydrochloride] | 1.56 µg/mL | 0.39 µg/mL | 6.25 µg/mL | 0.78 µg/mL | –
